These results are taken from PMC7113582, “Peptide Self-Assembly Is Linked to Antibacterial, but Not Antifungal, Activity of Histatin 5 Derivatives” (mSphere, 2020).

Data set [1] relates to Candida albicans (SC5341). Nature of the data set: FITC uptake assay (membrane permeabilization). It is filed as cell-based. Conditions: C. albicans 2 × 10^7 cells per ml, 10 mM sodium phosphate buffer pH 7.4, 250 μg/ml peptide, 6 h at 30°C; no-peptide control 1%. The procedure: This assay was adapted from a previously reported method ([53]). Candida albicans (SC5341) cells were suspended (2 × 10^7 cells per ml) in 10 mM sodium phosphate buffer (pH 7.4) and treated with each of the peptides for 6 h at 30°C. Samples were then incubated with 6 μg/ml FITC (the stock solution is 10 mg/ml in acetone) plus 10 mM sodium phosphate buffer at 30°C for 30 min. A 10-μl volume of each sample was plated on an individual glass slide, and the slides were then washed with 10 mM sodium phosphate buffer thrice and examined using an Eclipse E600 fluorescence microscope (Nikon, Japan). The results presented are representative of three independent experiments.

The subject of data set [2] is E. coli bacteria (ATCC 25922). Briefly: Bacterial kinetic growth inhibition analysis, E. coli. It is filed as cell-based, Escherichia coli. The procedure: Each of the peptides was diluted by serial 2-fold dilutions in M9 minimal media in Corning (3879) 96-well plates (Sigma-Aldrich, Israel). E. coli bacteria (ATCC 25922) were grown overnight in M9 minimal media and diluted 1,000-fold in M9 media and grown for 5 h at 37°C. In Corning (3596) 96-well plates, 75-μl volumes of the serial 2-fold dilutions of each test compound were added to 75 μl of growth medium containing bacteria (5 × 10̂^6 CFU/ml). Bacteria and test compounds were incubated overnight at 37°C, and kinetic growth inhibition was determined by measurements of optical density at 600 nm using a Biotek Synergy HT microplate reader.

A further data set has as its system S. epidermidis. Briefly: Bacterial kinetic growth inhibition analysis, S. epidermidis. It is filed as cell-based, Staphylococcus epidermidis.
Data set [3] in a line: Self-assembly observed by transmission electron microscopy. Conditions: 1 mg/ml in water, heated 50 min at 90°C, cooled gradually to 25°C overnight; negative stain TEM. It is filed as physicochemical. As to the method:
Lyophilized powders of each of the peptides (Genscript Biotech, USA) were dissolved in ultrapure water (BioInd, Israel) to a concentration of 1 mg/ml and heated for 50 min at 90°C, allowing the peptides to reach the monomeric state, and were then allowed to cool gradually to 25°C overnight. This treatment facilitated the self-assembly and nanostructure formation of L7F but not dhvar2.
TEM imaging was performed by applying 10-μl samples to 400-mesh copper grids covered by a carbon-stabilized Formvar film (SPI, West Chester, PA, USA). The samples were allowed to adsorb for 2 min before excess fluid was blotted off. Negative staining was then achieved by depositing 10 μl of 2% uranyl acetate on the grid for 2 min before blotting off excess fluid. Micrographs were obtained using a Tecnai 12 electron microscope (FEI, Tokyo, Japan) operating at 120 kV.

Data set [4] can be described thus: Lipid/PDA vesicle fluorescent chromatic response, DOPC-containing model membrane. Conditions: DOPC/DMPG/ErgS/PDA SUVs; peptide 1 mg/ml stock, Tris-base buffer pH 8.0, 27°C, %FCR. The procedure: (§1) Vesicles containing the diacetylene monomer 10,12-tricosadiynoic acid (TRCDA) and the lipid and ergosterol components DOPC/DMPG/ErgS/PDA and DOPE/DMPG/ErgS/PDA (1:0.6:0.4:3) were dissolved in chloroform/ethanol (1:1) and dried together in vacuo to reach a constant weight, followed by addition of deionized water to reach a final concentration of 1 mM, and were subsequently subjected to probe sonication at 40 W at 70°C for 3 min. The vesicle solution was subsequently cooled at room temperature and kept at 4°C overnight. The solution was then irradiated at 254 nm for 30s, resulting in intense blue color appearance due to polymerization of the diacethylene units.
(§2) Fluorescence was measured on a Fluscan Ascent microplate reader using a 96-well microplate (Grainer), excitation at 485 nm and emission at 555 nm, and long-pass (LP) filters with normal slits. The background fluorescence from the vesicles alone was negligible. Samples were prepared for fluorescence measurements by adding 30 μl of each of the peptides at 1 mg/ml to 30 μl of lipid/PDA vesicles followed by addition of 30 μl 50 mM Tris-base buffer (pH = 8.0). The samples were incubated at 27°C during the measurements. […]

A short description of data set [5]: Lipid/PDA vesicle fluorescent chromatic response, DOPE-containing model membrane. Conditions: DOPE/DMPG/ErgS/PDA SUVs; peptide 1 mg/ml stock, Tris-base buffer pH 8.0, 27°C, %FCR. The procedure: as §1, §2
Setting [6] is: kinetic growth inhibition, OD600.

Consider “KRLFKEFLFSLRKY [L7F, single-amino-acid mutation L7F of dhvar2 (…), self-assembling derivative]”, for which the “FITC positive fluorescence (membrane permeabilization)” value in data set [1] was 95%. In addition, the “antibacterial activity, fold more active than dhvar2” value is reported as 4 fold in data set [2] (setting [6]) and 2 fold with S. epidermidis (setting [6]). For the same sequence, the “peptide concentration that completely inhibited growth” value was 125 µg/mL in data set [2] (serial 2-fold dilutions, 37°C, OD600, representative of three experiments) and 250 µg/mL with S. epidermidis (serial 2-fold dilutions, OD600, representative of three experiments). Besides, the “self-assembly / morphology of assemblies (TEM)” value in data set [3] was “long, unbranched nanoassemblies”.
As for “KRLFKELLFSLRKY [dhvar2, well-characterized histatin 5 derivative, …, reference compound]”, in data set [1], the “FITC positive fluorescence (membrane permeabilization)” value is recorded as 95%. Moreover, the “colorimetric response, fold lower than that to L7F” value in data set [4] is 2 fold. Moreover, the “fluorescent chromatic response, fold lower than that to L7F” value in data set [5] was found to be 2 fold. The “self-assembly / morphology of assemblies (TEM)” value in data set [3] is on record as “no ordered assemblies”.
